Test results as given in ChEMBL document CHEMBL2380242, “Discovery of novel orally bioavailable GPR40 agonists” (Bioorg Med Chem Lett, 2013).
pEC50: −log10 of the molar value.

Columns and labels:
[1] = biological target: T1, Free fatty acid receptor 1 (Homo sapiens, UniProt O14842); test: Agonist activity at human GPR40 transfected in CHO cells by calcium flux assay; format: functional, cell-based
[2] = biological target: T1, Free fatty acid receptor 1; test: Agonist activity at human GPR40 transfected in CHO cells by calcium flux assay relative to TAK-875; format: functional, cell-based

T1 sequence (O14842 whole entry): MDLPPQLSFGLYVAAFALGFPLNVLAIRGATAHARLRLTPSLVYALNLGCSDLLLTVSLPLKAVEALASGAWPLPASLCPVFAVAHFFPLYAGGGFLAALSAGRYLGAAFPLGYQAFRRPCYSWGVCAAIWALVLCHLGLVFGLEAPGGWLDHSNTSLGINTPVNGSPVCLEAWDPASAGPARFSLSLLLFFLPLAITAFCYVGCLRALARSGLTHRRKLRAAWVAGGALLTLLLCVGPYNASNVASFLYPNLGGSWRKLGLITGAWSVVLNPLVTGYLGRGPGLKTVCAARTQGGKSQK

SMILES | pEC50 [1] | Emax [2] [%]
Cc1cc(OCCCS(C)(=O)=O)cc(C)c1-c1cccc([C@H]2COc3cc4c(cc3O2)OC[C@H]4CC(=O)O)c1 | 6.55 | 111
Cc1cc(C)cc(-c2cccc(C3COc4cc5c(cc4O3)OC[C@H]5CC(=O)O)c2)c1 (stereo partly specified) | 6.88 | 68
O=C(O)C[C@@H]1COc2cc3c(cc21)OCC(c1cccc(-c2ccccc2)c1)O3 (stereo partly specified) | 7.18 | 105
O=C(O)C[C@@H]1COc2cc3c(cc21)OCC(c1cccc(-c2ccccc2C(F)(F)F)c1)O3 (stereo partly specified) | 7.13 | 104
O=C(O)C[C@@H]1COc2cc3c(cc21)OCC(c1cccc(-c2ccc(F)cc2Cl)c1)O3 (stereo partly specified) | 7.13 | 103
O=C(O)C[C@@H]1COc2cc3c(cc21)OC[C@H](c1cccc(Br)c1)O3 | 6.95 | 105
CS(=O)(=O)CCCOc1ccc(-c2cccc([C@H]3COc4cc5c(cc4O3)OC[C@H]5CC(=O)O)c2)c(Cl)c1 | 6.84 | 71
CS(=O)(=O)CCCOc1ccc(-c2cccc([C@@H]3COc4cc5c(cc4O3)OC[C@H]5CC(=O)O)c2)c(Cl)c1 | 7.02 | 89
CS(=O)(=O)CCCOc1ccc(-c2cc(C3COc4cc5c(cc4O3)OC[C@H]5CC(=O)O)ccc2F)c(Cl)c1 (stereo partly specified) | 6.90 | 66
Cc1cc(OCCCS(C)(=O)=O)c(F)c(C)c1-c1cccc([C@H]2COc3cc4c(cc3O2)OC[C@H]4CC(=O)O)c1 | 6.92 | 77
O=C(O)C[C@@H]1COc2cc3c(cc21)OCC(c1cccc(-c2ccccc2F)c1)O3 (stereo partly specified) | 7.14 | 115
O=C(O)C[C@@H]1COc2cc3c(cc21)OCC(c1cc(F)cc(C(F)(F)F)c1)O3 (stereo partly specified) | 7.20 | 79
O=C(O)C[C@@H]1COc2cc3c(cc21)OC[C@@H](c1cccc(-c2ccccc2Cl)c1)O3 | 7.18 | 99
Cc1ccc(C)c(-c2cccc(C3COc4cc5c(cc4O3)OC[C@H]5CC(=O)O)c2)c1 (stereo partly specified) | 7.06 | 89
CS(=O)(=O)CCCOc1ccc(-c2cc(F)cc(C3COc4cc5c(cc4O3)OC[C@H]5CC(=O)O)c2)c(Cl)c1 (stereo partly specified) | 6.69 | 69
O=C(O)C[C@@H]1COc2cc3c(cc21)OC[C@H](c1ccc(Cl)c(Cl)c1)O3 | 6.72 | 61
Cc1cc(OCCCS(C)(=O)=O)ccc1-c1cccc(C2COc3cc4c(cc3O2)OC[C@H]4CC(=O)O)c1 (stereo partly specified) | 6.91 | 53

Stronger by pEC50 [1], values ahead:

pEC50 [1] | Emax [2] [%] | SMILES
7.52 | 55.6 | O=C(O)C[C@@H]1COc2cc3c(cc21)OC[C@H](c1cccc(C(F)(F)F)c1)O3
7.25 | 102 | CS(=O)(=O)CCCOc1ccc(-c2ccc(F)c(C3COc4cc5c(cc4O3)OC[C@H]5CC(=O)O)c2)c(Cl)c1 (stereo partly specified)
7.26 | 89 | O=C(O)C[C@@H]1COc2cc3c(cc21)OCC(c1cccc(Br)c1)O3 (stereo partly specified)
7.44 | 66 | O=C(O)C[C@@H]1COc2cc3c(cc21)OCC(c1cccc(C2CC2)c1)O3 (stereo partly specified)
7.44 | 77 | Cc1cc(F)ccc1-c1cccc(C2COc3cc4c(cc3O2)OC[C@H]4CC(=O)O)c1 (stereo partly specified)
7.52 | 72 | Cc1cccc(C)c1-c1cccc([C@H]2COc3cc4c(cc3O2)OC[C@H]4CC(=O)O)c1
7.41 | 90 | Cc1ccc(-c2cccc(C3COc4cc5c(cc4O3)OC[C@H]5CC(=O)O)c2)c(C)c1 (stereo partly specified)
7.28 | 85 | Cc1cccc(C)c1-c1cccc([C@@H]2COc3cc4c(cc3O2)OC[C@H]4CC(=O)O)c1
7.25 | 97 | O=C(O)C[C@@H]1COc2cc3c(cc21)OC[C@H](c1cccc(-c2ccccc2Cl)c1)O3 (mixture of isomers)
7.41 | 76 | Cc1ccccc1-c1cccc([C@@H]2COc3cc4c(cc3O2)OC[C@H]4CC(=O)O)c1
7.25 | 124 | Cc1cc(OCCCS(C)(=O)=O)cc(C)c1-c1cccc([C@@H]2COc3cc4c(cc3O2)OC[C@H]4CC(=O)O)c1
